In ChEMBL document CHEMBL5375968, “Peptide TK-HR from the Skin of Chinese Folk Medicine Frog Hoplobatrachus Rugulosus Accelerates Wound Healing via the Activation of the Neurokinin-1 Receptor” (J Med Chem, 2023):
The source made the active and inactive calls. No cut-off for these calls is given here.

Key:
[1] = test system: Splenic fibroblast; test: Effect on TGF-1beta production in human […] fibroblasts at 5 to 40 uM incubated for 24 hrs by ELISA; assay type: functional, cell-based; details: dose 5-40 µM
[2] = test system: HUVEC; test: Induction of cell migration in HUVEC cells assessed as formation of filopodia extensions at 20 uM measured after 24 hrs by immunofluorescence microscopy; assay type: functional, cell-based; details: Homo sapiens
[3] = test system: RAW264.7; test: Induction of cell migration in mouse RAW264.7 cells incubated for 24 hrs by crystal violet staining based microscopy; assay type: functional; details: dose 5-20 µM
[4] = test system: HaCaT; test: Induction of cell migration in human HaCaT cells assessed as formation of filopodia extensions at 20 uM measured after 24 hrs by immunofluorescence microscopy; assay type: functional, cell-based
[5] = test system: RAW264.7; test: Effect on total Smad3 level in mouse RAW264.7 cells at 2.5 to 20 uM incubated for 4 hrs by Western blot analysis; assay type: functional, cell-based; details: dose 2.5-20 µM
[6] = test system: Neutrophil; test: Induction of phagocytosis in BALB/c mouse neutrophils cultured with CFSE-labeled Escherichia coli ATCC 25922 at 10 uM pretreated for 1 hr followed by bacterial exposure measured after 1.5 hrs by fluorescence microscopy; assay type: functional, cell-based; details: time 2.5 hrs
[7] = test system: HaCaT; test: Induction of cell migration in Mitomycin C-treated human HaCaT cells assessed as healing rate at 20 uM measured after 24 hrs by scratch healing assay (reference value: 21.3 %); assay type: functional
[8] = test system: RAW264.7; test: Upregulation of phosphorylated Smad3 level in Aprepitant-treated mouse RAW264.7 cells at 2.5 to 20 uM incubated for 4 hrs by Western blot analysis; assay type: functional, cell-based; details: dose 2.5-20 µM
[9] = organism: Mus musculus; test: Induction of wound healing in BALB/c mouse model of full-thickness wounds assessed as parallel alignment of collagen fibers at 50 to 200 ug/ml, TOP bid measured after 8 days by Masson's Trichome staining based analysis; assay type: functional; details: dose 50-200 µg/ml, time 8.0 day
[10] = organism: Mus musculus; test: Induction of wound healing in BALB/c mouse model of full-thickness wounds assessed as increase in recruitment of total macrophages in wound skin at 50 ug/ml, TOP bid measured after 2 days by IHC analysis; assay type: functional; details: dose 50.0 µg/ml, time 2.0 day
[11] = test system: HUVEC; test: Angiogenic activity in Aprepitant-treated HUVEC cells assessed as increase in tube formation at 20 uM measured for 4 hrs by microscopic analysis; assay type: functional, cell-based; details: Homo sapiens
[12] = test system: RAW264.7; test: Upregulation of phosphorylated ERK level in mouse RAW264.7 cells at 2.5 to 20 uM incubated for 4 hrs by Western blot analysis; assay type: functional, cell-based; details: dose 2.5-20 µM
[13] = Induction of wound healing in BALB/c mouse model of full-thickness wounds at 100 ug/ml, TOP bid measured after 4 days (reference value: 48.6 %); assay type: functional; details: dose 100 µg/ml, time 4 day
[14] = test system: Aorta; test: Ex vivo angiogenic activity in C57BL/6 mouse aortic ring assessed as increase in sprouting by measuring vessel outgrowth area at 10 uM measured for 7 days by microscopic analysis relative to control; assay type: functional; details: time 7 day
[15] = organism: Mus musculus; test: Induction of wound healing in BALB/c mouse model of full-thickness wounds assessed as increase in phosphorylated Smad2 level in wound skin at 50 to 200 ug/ml, TOP bid measured after 4 days by Western blot analysis; assay type: functional; details: dose 50-200 µg/ml, time 4.0 day
[16] = test system: RAW264.7; test: Cytotoxicity against mouse RAW264.7 cells assessed as cell viability at 5 to 40 uM incubated for 24 hrs by MTT assay; assay type: toxicity, cell-based; details: raw264.7, 24 h, dose 5-40 µM
[17] = organism: Mus musculus; test: Induction of wound healing in BALB/c mouse model of full-thickness wounds assessed as increase in epidermal layer re-constuction at 50 ug/ml, TOP bid measured after 8 days by H and E staining based analysis; assay type: functional; details: dose 50.0 µg/ml, time 8.0 day
[18] = organism: Mus musculus; test: Induction of wound healing in BALB/c mouse model of full-thickness wounds assessed as increase in TNF-alpha level in wound skin at 50 ug/ml, TOP bid measured after 2 days by ELISA; assay type: functional; details: dose 50.0 µg/ml, time 2.0 day
[19] = Induction of wound healing in BALB/c mouse model of full-thickness wounds at 50 ug/ml, TOP bid measured after 2 days (reference value: 30.4 %); assay type: functional; details: dose 50 µg/ml, time 2 day
[20] = test system: RAW264.7; test: Induction of phagocytosis in mouse RAW264.7 cells cultured with Escherichia coli ATCC 25922 assessed as number of surviving engulfed bacteria at 5 uM incubated for 24 hrs followed by bacterial exposure for 1 hr and further treated with gentamycin for 2 hrs by plate counting method (reference value: 37); assay type: functional
[21] = test system: RAW264.7; test: Induction of phagocytosis in mouse RAW264.7 cells assessed as increase in neutral red dye uptake by measuring optical density at 540 nm at 2.5 uM incubated for 24 hrs followed by dye addition measured after 4 hrs by absorbance based assay (reference value: 0.073); assay type: functional; details: time 28 hrs
[22] = test system: HaCaT; test: Induction of cell migration in Aprepitant-treated human HaCaT cells assessed as healing rate at 20 uM measured after 24 hrs by scratch healing assay (reference value: 36.8 %); assay type: functional
[23] = test system: RAW264.7; test: Upregulation of phosphorylated p38 level in Aprepitant-treated mouse RAW264.7 cells at 2.5 to 20 uM incubated for 4 hrs by Western blot analysis; assay type: functional, cell-based; details: dose 2.5-20 µM
[24] = test system: Neutrophil; test: Induction of phagocytosis in BALB/c mouse neutrophils cultured with CFSE-labeled Staphylococcus aureus ATCC 25923 at 10 uM pretreated for 1 hr followed by bacterial exposure measured after 1.5 hrs by fluorescence microscopy; assay type: functional, cell-based; details: time 2.5 hrs
[25] = test system: RAW264.7; test: Induction of phagocytosis in mouse RAW264.7 cells cultured with Escherichia coli ATCC 25922 assessed as number of engulfed bacteria at 5 uM incubated for 24 hrs followed by bacterial exposure measured after 1 hr by plate counting method (reference value: 225); assay type: functional; details: time 25 hrs
[26] = test system: HaCaT; test: Induction of cell migration in human HaCaT cells assessed as healing rate at 20 uM measured after 24 hrs by scratch healing assay (reference value: 36.8 %); assay type: functional
[27] = Induction of TGF-beta1 level in Aprepitant-treated mouse RAW264.7 cells at 20 uM incubated for 24 hrs by ELISA; assay type: functional
[28] = test system: RAW264.7; test: Induction of cell migration in Aprepitant-treated mouse RAW264.7 cells at 5 to 20 uM incubated for 24 hrs by crystal violet staining based microscopy; assay type: functional; details: dose 5-20 µM
[29] = Induction of wound healing in BALB/c mouse model of full-thickness wounds at 200 ug/ml, TOP bid measured after 8 days (reference value: 81.0 %); assay type: functional; details: dose 200 µg/ml, time 8 day
[30] = test system: RAW264.7; test: Upregulation of phosphorylated Smad2 level in mouse RAW264.7 cells at 2.5 to 20 uM incubated for 4 hrs by Western blot analysis; assay type: functional, cell-based; details: dose 2.5-20 µM
[31] = Induction of wound healing in BALB/c mouse model of full-thickness wounds at 50 ug/ml, TOP bid measured after 6 days (reference value: 71.7 %); assay type: functional; details: dose 50 µg/ml, time 6 day
[32] = test system: RAW264.7; test: Effect on total ERK level in mouse RAW264.7 cells at 2.5 to 20 uM incubated for 4 hrs by Western blot analysis; assay type: functional, cell-based; details: dose 2.5-20 µM
[33] = organism: Mus musculus; test: Induction of wound healing in BALB/c mouse model of full-thickness wounds assessed as alignment of collagen fibers close to normal skin at 50 to 200 ug/ml, TOP bid measured after 8 days by Masson's Trichome staining based analysis; assay type: functional; details: dose 50-200 µg/ml, time 8.0 day

H-KPNPDRFYGLM-NH2
Activity [1]: inactive
Activity [2]: Active
Activity [3]: Dose-Dependent Effect
Activity [4]: Active
Activity [5]: inactive
Activity [6]: Active
Activity [7]: 40.2%
Activity [8]: inactive
Activity [9]: Active
Activity [10]: Active
Activity [11]: inactive
Activity [12]: Active
Activity [13]: 70.9%
Activity [14]: 117.3%
Activity [15]: Active
Activity [16]: Non-Toxic
Activity [17]: Active
Activity [18]: Active
Activity [19]: 38.9%
Activity [20]: 29
OD [21]: 0.097
Activity [22]: 41.7%
Activity [23]: inactive
Activity [24]: Active
Activity [25]: 302
Activity [26]: 72.1%
Activity [27]: 46.7 pg/mL
Activity [28]: inactive
Activity [29]: 100%
Activity [30]: Active
Activity [31]: 86.6%
Activity [32]: inactive
Activity [33]: Active
